Read-outs that look alike come from different tables or passages of the source.
Tests used:
[1] = Extractable organofluorine (EOF) and fluorine mass balance in plasma and tissues at 48 h; type: in vivo, rat; conditions: for concentration at 48 h: male, RccHan:WIST, rat, read-out: PFOA-fluorine equivalent
Experimental: Plasma and tissue samples taken at 48 h after exposure were subjected to EOF analysis. Extraction procedure followed the procedure described above with the exception that no mass labelled internal standards were spiked to the samples before extraction. The EOF content of the 1 mL extract was analyzed by combustion ion chromatography (CIC). Part of the extract (200 μL) was transferred to a LC vial with the addition of 10 μL of mass-labelled standards; after that, aqueous ammonium acetate (2 mM, 300 μL) was added to the vial for PFAS analysis using LC-MS/MS. The reported EOF concentrations as well as the concentration of PFOA for mass balance analysis were not recovery-corrected.
Levels of EOF in the sample extracts were determined with a combustion ion chromatography (CIC) system consisting of a combustion module (Analytik Jena, Germany), a 920 Absorber Module and a 930 Compact IC Flex ion chromatograph module (both from Metrohm, Switzerland). An ion exchange column (Metrosep A Supp 5–150/4.0), with carbonate buffer (64 mmol/L sodium carbonate and 20 mmol/L sodium bicarbonate) as the mobile phase, was used for the separation of anions; the absorber solution was water. The sample extract (100 μL) was set on a silica boat via an autosampler and placed into a furnace at 900–1000 °C. The combustion of the sample in the furnace converted organic fluorine and inorganic fluorine into hydrogen fluoride (HF), which was then trapped by MilliQ water. The fluoride concentration in the solution was analyzed using ion chromatography. […] Quantification was based on external calibration. The analytical conditions for ion chromatography have been reported elsewhere (Kärrman et al. [2021]).
The measured PFOA concentration (ng/mL) in the sample extract of the EOF analysis was converted to the corresponding fluoride-equivalent concentration (ng/mL F) using the following formula:1 CFPFAS=CPFAS*NF*AF/MWPFAS where CPFAS is the concentration of the target compound (i.e., PFOA), NF is the number of fluorine atoms in the target compound (i.e., 15), AF is the atomic weight of fluorine (g/mol, i.e., 19), and MWPFAS is the molecular weight of the target compound (i.e., 413). The sum of known extractable fluorine concentration (ΣCF_PFAS) was calculated by summing the fluorine concentrations from all individual PFASs. Values below limits of quantification (LOQ) were set for calculating ΣCF_PFAS. Levels of unidentified organofluorine were calculated by subtracting […], which in this present study only PFOA.

albumin in serum = test system: albumin in serum; parameters: method as in Han et al. [2003]; conditions: ref Han et al. [2003]; cited from earlier work
[2] = parameters: method as in Hinderliter et al. [2006]; conditions: ref Hinderliter et al. [2006], cited from earlier work

Q: Which “Proportion of PFOA to EOF in plasma” value ([1]; both exposure groups) does the source give for O=C(O)C(F)(F)C(F)(F)C(F)(F)C(F)(F)C(F)(F)C(F)(F)C(F)(F)F [PFOA, Perfluorooctanoic acid] here?
A: 65–71%

Q: And the “Contribution to EOF (%)” value ([1]; kidney, inhalation)?
A: 81%

Q: What about the “Contribution to EOF (%)” value ([1]; kidney, oral) of the same molecule?
A: 83%

Q: And the “Contribution to EOF (%)” value ([1]; liver, inhalation)?
A: 87%

Q: What about the “Contribution to EOF (%)” value ([1]; liver, oral) of the same molecule?
A: 83%

Q: And the “Contribution to EOF (%)” value ([1]; lung lavage, inhalation)?
A: 76%

Q: And the “Contribution to EOF (%)” value ([1]; lung lavage, oral)?
A: 84%

Q: What about the “Contribution to EOF (%)” value ([1]; lung, inhalation) of the same molecule?
A: 86%

Q: And the “Contribution to EOF (%)” value ([1]; lung, oral)?
A: 74%

Q: What about the concentration at 48 h ([1]; 364 μg PFOA/kg BW, kidney, oral) of the same molecule?
A: 2160 ± 130 ng/g

Q: And the concentration at 48 h ([1]; 364 μg PFOA/kg BW, liver, oral)?
A: 6140 ± 340 ng/g

Q: And the concentration at 48 h ([1]; 364 μg PFOA/kg BW, lung, oral)?
A: 1160 ± 210 ng/g

Q: And the concentration at 48 h ([1]; 364 μg PFOA/kg BW, plasma, oral, not recovery-corrected)?
A: 1420 ± 240 ng/mL

Q: What about the concentration at 48 h ([1]; inhaled, 164 μg PFOA/kg BW, kidney, inhalation) of the same molecule?
A: 2640 ± 530 ng/g

Q: What about the concentration at 48 h ([1]; inhaled, 164 μg PFOA/kg BW, liver, inhalation) of the same molecule?
A: 6950 ± 650 ng/g

Q: And the concentration at 48 h ([1]; inhaled, 164 μg PFOA/kg BW, lung, inhalation)?
A: 21500 ± 2750 ng/g

Q: What about the concentration at 48 h ([1]; inhaled, 164 μg PFOA/kg BW, plasma, inhalation, not recovery-corrected) of the same molecule?
A: 1530 ± 170 ng/mL

Q: And the concentration at 48 h ([1]; lung lavage (BALF), 364 μg PFOA/kg BW, lung lavage, oral)?
A: 210 ± 20 ng/mL

Q: What about the concentration at 48 h ([1]; lung lavage (BALF), inhaled, 164 μg PFOA/kg BW, lung lavage, inhalation) of the same molecule?
A: 6870 ± 430 ng/mL

Q: And the “Share of EOF levels explained by measured PFOA, all samples” value ([1]; plasma and tissues)?
A: 65–87%

Q: And the “Contribution to EOF (%)” value ([1]; plasma, oral)?
A: 65%

Q: And the “PFOA bound to albumin in serum” value (albumin in serum)?
A: more than 90%

Q: What about the “Concentration of PFOA in plasma” value ([2]; 6-h inhalation exposure, 1–25 mg/m^3 aerosolized solution) of the same molecule?
A: 1000 to 25000 ng/mL

Q: What about the “Plasma level in male compared to females” value ([2]; end of the 6-h exposure time) of the same molecule?
A: almost twice as high

— PMC9587079, “Bioavailability of inhaled or ingested PFOA adsorbed to house dust” (Environmental Science and Pollution Research International, 2022)
